How the values were obtained:
His-BIR3 (241-356, XIAP) = biological target: T1, His-BIR3 (241-356, XIAP) (Homo sapiens, UniProt P98170); assay: XIAP-BIR3/SMAC Homogeneous Time Resolved Fluorescence (HTRF) Assay; assay type: binding; conditions: Table 4
T1 construct: additions of His-BIR3 (241-356, XIAP), fluorescein labeled SMAC peptide

[1] = biological target: T2, His-BIR2-3 (125-356, C202A/C213G, XIAP) (Homo sapiens, UniProt P98170, C202A/C213G); assay: XIAP-BIR2-3 Dimeric SMAC Peptide Homogeneous Time Resolved Fluorescence (HTRF) Assay; assay type: binding; conditions: XIAP BIR2-3, HTRF, Table 4
T2 construct: additions of His-BIR2-3 (125-356, C202A/C213G, XIAP), fluorescein labeled dimeric SMAC peptide
T2 sequence (P98170 125-356 C202A/C213G): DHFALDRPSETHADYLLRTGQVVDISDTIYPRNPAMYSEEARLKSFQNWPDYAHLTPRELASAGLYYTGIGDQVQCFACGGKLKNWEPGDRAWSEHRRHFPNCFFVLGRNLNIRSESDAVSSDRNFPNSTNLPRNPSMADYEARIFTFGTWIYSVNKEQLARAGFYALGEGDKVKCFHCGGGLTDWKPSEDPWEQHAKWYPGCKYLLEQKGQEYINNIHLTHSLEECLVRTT

T1 sequence (P98170 241-356): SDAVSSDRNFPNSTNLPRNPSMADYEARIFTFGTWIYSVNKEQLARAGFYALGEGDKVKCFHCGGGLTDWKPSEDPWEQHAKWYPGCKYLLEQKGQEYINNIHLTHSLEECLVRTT

| IC50 (His-BIR3 (241-356, XIAP)) | IC50 [1] | Structure (SMILES) |
| --- | --- | --- |
| 0.01 to 0.1 µM | 0.001 to 0.01 µM | CN[C@@H](C)C(=O)N[C@H](C(=O)N1C[C@@H]2C[C@H]1C(=O)N[C@@H](Cc1ccc3ccccc3c1)C(=O)N[C@H](C(=O)O)Cc1ccc(cc1)OCc1cn(nn1)[C@H]1C[C@@H](C(=O)N[C@@H](Cc3ccc4ccccc4c3)C(=O)N[C@H](C(=O)N3CCC(C(=O)O)CC3)Cc3ccc(cc3)OCc3cn2nn3)N(C(=O)[C@@H](NC(=O)[C@H](C)NC)C(C)(C)C)C1)C(C)(C)C [Compound 1027] |
| < 0.01 µM | ≤ 0.001 µM | CN[C@@H](C)C(=O)N[C@H](C(=O)N1C[C@@H]2C[C@H]1C(=O)N[C@@H](Cc1ccc3ccccc3c1)C(=O)N[C@H](C(=O)O)Cc1ccc(cc1)OCc1cn(nn1)[C@H]1C[C@@H](C(=O)N[C@@H](Cc3ccc4ccccc4c3)C(=O)N[C@H](C(=O)N(C)CCC(=O)O)Cc3ccc(cc3)OCc3cn2nn3)N(C(=O)[C@@H](NC(=O)[C@H](C)NC)C(C)(C)C)C1)C(C)(C)C [Compound 1028] |
| 0.01 to 0.1 µM | 0.001 to 0.01 µM | CN[C@@H](C)C(=O)N[C@H](C(=O)N1C[C@@H]2C[C@H]1C(=O)N[C@@H](Cc1ccc3ccccc3c1)C(=O)N[C@H](C(=O)O)Cc1ccc(cc1)OCc1cn(nn1)[C@H]1C[C@@H](C(=O)N[C@@H](Cc3ccc4ccccc4c3)C(=O)N[C@H](C(=O)NCc3cccc(-c4nnn[nH]4)c3)Cc3ccc(cc3)OCc3cn2nn3)N(C(=O)[C@@H](NC(=O)[C@H](C)NC)C(C)(C)C)C1)C(C)(C)C [Compound 1029] |
| < 0.01 µM | ≤ 0.001 µM | CN[C@@H](C)C(=O)N[C@H](C(=O)N1C[C@@H]2C[C@H]1C(=O)N[C@@H](Cc1ccc3ccccc3c1)C(=O)N[C@H](C(=O)O)Cc1ccc(cc1)OCc1cn(nn1)[C@H]1C[C@@H](C(=O)N[C@@H](Cc3ccc4ccccc4c3)C(=O)N[C@H](C(=O)NCCCC(=O)O)Cc3ccc(cc3)OCc3cn2nn3)N(C(=O)[C@@H](NC(=O)[C@H](C)NC)C(C)(C)C)C1)C(C)(C)C [Compound 1032] |
| < 0.01 µM | 0.001 to 0.01 µM | CN[C@@H](C)C(=O)N[C@H](C(=O)N1C[C@@H]2C[C@H]1C(=O)N[C@@H](Cc1ccc3ccccc3c1)C(=O)N[C@H](C(=O)O)Cc1ccc(cc1)OCc1cn(nn1)[C@H]1C[C@@H](C(=O)N[C@@H](Cc3ccc4ccccc4c3)C(=O)N[C@H](C(=O)N[C@@H](C)C(=O)O)Cc3ccc(cc3)OCc3cn2nn3)N(C(=O)[C@@H](NC(=O)[C@H](C)NC)C(C)(C)C)C1)C(C)(C)C [Compound 1033] |
| 0.01 to 0.1 µM | > 0.01 µM | CN[C@@H](C)C(=O)N[C@H](C(=O)N1C[C@@H]2C[C@H]1C(=O)N[C@@H](Cc1ccc3ccccc3c1)C(=O)N[C@H](C(=O)O)Cc1ccc(cc1)OCc1cn(nn1)[C@H]1C[C@@H](C(=O)N[C@@H](Cc3ccc4ccccc4c3)C(=O)N[C@H](C(=O)N[C@@H](CCCCN)C(=O)N[C@@H](CO)C(=O)O)Cc3ccc(cc3)OCc3cn2nn3)N(C(=O)[C@@H](NC(=O)[C@H](C)NC)C(C)(C)C)C1)C(C)(C)C [Compound 1034] |
| < 0.01 µM | ≤ 0.001 µM | CN[C@@H](C)C(=O)N[C@H](C(=O)N1C[C@@H]2C[C@H]1C(=O)N[C@@H](Cc1ccc3ccccc3c1)C(=O)N[C@H](C(=O)O)Cc1ccc(cc1)OCc1cn(nn1)[C@H]1C[C@@H](C(=O)N[C@@H](Cc3ccc4ccccc4c3)C(=O)N[C@H](C(=O)NS(=O)(=O)c3ccccn3)Cc3ccc(cc3)OCc3cn2nn3)N(C(=O)[C@@H](NC(=O)[C@H](C)NC)C(C)(C)C)C1)C(C)(C)C [Compound 1035] |
| 0.01 to 0.1 µM | 0.001 to 0.01 µM | CN[C@@H](C)C(=O)N[C@H](C(=O)N1C[C@@H]2C[C@H]1C(=O)N[C@@H](Cc1ccc3ccccc3c1)C(=O)N[C@H](C(=O)O)Cc1ccc(cc1)OCc1cn(nn1)[C@H]1C[C@@H](C(=O)N[C@@H](Cc3ccc4ccccc4c3)C(=O)N[C@H](C(=O)NS(=O)(=O)c3ccc(OC(F)(F)F)cc3)Cc3ccc(cc3)OCc3cn2nn3)N(C(=O)[C@@H](NC(=O)[C@H](C)NC)C(C)(C)C)C1)C(C)(C)C [Compound 1036] |
| 0.01 to 0.1 µM | 0.001 to 0.01 µM | CN[C@@H](C)C(=O)N[C@H](C(=O)N1C[C@@H]2C[C@H]1C(=O)N[C@@H](Cc1ccc3ccccc3c1)C(=O)N[C@H](C(=O)O)Cc1ccc(cc1)OCc1cn(nn1)[C@H]1C[C@@H](C(=O)N[C@@H](Cc3ccc4ccccc4c3)C(=O)N[C@H](C(=O)NS(=O)(=O)CC3CC3)Cc3ccc(cc3)OCc3cn2nn3)N(C(=O)[C@@H](NC(=O)[C@H](C)NC)C(C)(C)C)C1)C(C)(C)C [Compound 1037] |
| 0.01 to 0.1 µM | > 0.01 µM | CN[C@@H](C)C(=O)N[C@H](C(=O)N1C[C@@H]2C[C@H]1C(=O)N[C@@H](Cc1ccc3ccccc3c1)C(=O)N[C@H](C(=O)O)Cc1ccc(cc1)OCc1cn(nn1)[C@H]1C[C@@H](C(=O)N[C@@H](Cc3ccc4ccccc4c3)C(=O)N[C@H](C(=O)N[C@@H](CC(=O)O)C(=O)N[C@H](CCSC)C(=O)O)Cc3ccc(cc3)OCc3cn2nn3)N(C(=O)[C@@H](NC(=O)[C@H](C)NC)C(C)(C)C)C1)C(C)(C)C [Compound 1038] |
| 0.01 to 0.1 µM | 0.001 to 0.01 µM | CN[C@@H](C)C(=O)N[C@H](C(=O)N1C[C@@H]2C[C@H]1C(=O)N[C@@H](Cc1ccc3ccccc3c1)C(=O)N[C@H](C(=O)O)Cc1ccc(cc1)OCc1cn(nn1)[C@H]1C[C@@H](C(=O)N[C@@H](Cc3ccc4ccccc4c3)C(=O)N[C@H](C(=O)NS(=O)(=O)c3ccc4ccccc4c3)Cc3ccc(cc3)OCc3cn2nn3)N(C(=O)[C@@H](NC(=O)[C@H](C)NC)C(C)(C)C)C1)C(C)(C)C [Compound 1039] |
| > 0.1 µM | > 0.01 µM | CN[C@@H](C)C(=O)N[C@H](C(=O)N1C[C@@H]2C[C@H]1C(=O)N[C@@H](Cc1ccc3ccccc3c1)C(=O)N[C@H](C(=O)O)Cc1ccc(cc1)OCc1cn(nn1)[C@H]1C[C@@H](C(=O)N[C@@H](Cc3ccc4ccccc4c3)C(=O)N[C@H](C(=O)NCc3cc(F)c(OC)c(F)c3)Cc3ccc(cc3)OCc3cn2nn3)N(C(=O)[C@@H](NC(=O)[C@H](C)NC)C(C)(C)C)C1)C(C)(C)C [Compound 1040] |
| 0.01 to 0.1 µM | 0.001 to 0.01 µM | CN[C@@H](C)C(=O)N[C@H](C(=O)N1C[C@@H]2C[C@H]1C(=O)N[C@@H](Cc1ccc3ccccc3c1)C(=O)N[C@H](C(=O)O)Cc1ccc(cc1)OCc1cn(nn1)[C@H]1C[C@@H](C(=O)N[C@@H](Cc3ccc4ccccc4c3)C(=O)N[C@H](C(=O)NCc3cc(F)c(O)c(F)c3)Cc3ccc(cc3)OCc3cn2nn3)N(C(=O)[C@@H](NC(=O)[C@H](C)NC)C(C)(C)C)C1)C(C)(C)C [Compound 1041] |
| 0.01 to 0.1 µM | 0.001 to 0.01 µM | CN[C@@H](C)C(=O)N[C@H](C(=O)N1C[C@@H]2C[C@H]1C(=O)N[C@@H](Cc1ccc3ccccc3c1)C(=O)N[C@H](C(=O)O)Cc1ccc(cc1)OCc1cn(nn1)[C@H]1C[C@@H](C(=O)N[C@@H](Cc3ccc4ccccc4c3)C(=O)N[C@H](C(=O)NC(CO)CO)Cc3ccc(cc3)OCc3cn2nn3)N(C(=O)[C@@H](NC(=O)[C@H](C)NC)C(C)(C)C)C1)C(C)(C)C [Compound 1042] |
| 0.01 to 0.1 µM | 0.001 to 0.01 µM | CN[C@@H](C)C(=O)N[C@H](C(=O)N1C[C@@H]2C[C@H]1C(=O)N[C@@H](Cc1ccc3ccccc3c1)C(=O)N[C@H](C(=O)O)Cc1ccc(cc1)OCc1cn(nn1)[C@H]1C[C@@H](C(=O)N[C@@H](Cc3ccc4ccccc4c3)C(=O)N[C@H](c3n[nH]oc3=O)Cc3ccc(cc3)OCc3cn2nn3)N(C(=O)[C@@H](NC(=O)[C@H](C)NC)C(C)(C)C)C1)C(C)(C)C [Compound 1043] |
| < 0.01 µM | 0.001 to 0.01 µM | CN[C@@H](C)C(=O)N[C@H](C(=O)N1C[C@@H]2C[C@H]1C(=O)N[C@@H](Cc1ccc3ccccc3c1)C(=O)N[C@H](C(=O)O)Cc1ccc(cc1)OCc1cn(nn1)[C@H]1C[C@@H](C(=O)N[C@@H](Cc3ccc4ccccc4c3)C(=O)N[C@H](C(=O)NCC[C@@H](O)C[C@@H](O)CC(=O)O)Cc3ccc(cc3)OCc3cn2nn3)N(C(=O)[C@@H](NC(=O)[C@H](C)NC)C(C)(C)C)C1)C(C)(C)C [Compound 1044] |
| < 0.01 µM | ≤ 0.001 µM | CN[C@@H](C)C(=O)N[C@H](C(=O)N1C[C@@H]2C[C@H]1C(=O)N[C@@H](Cc1ccc3ccccc3c1)C(=O)N[C@H](C(=O)O)Cc1ccc(cc1)OCc1cn(nn1)[C@H]1C[C@@H](C(=O)N[C@@H](Cc3ccc4ccccc4c3)C(=O)N[C@H](C(=O)NS(=O)(=O)CCCC(=O)O)Cc3ccc(cc3)OCc3cn2nn3)N(C(=O)[C@@H](NC(=O)[C@H](C)NC)C(C)(C)C)C1)C(C)(C)C [Compound 1045] |
| < 0.01 µM | ≤ 0.001 µM | CN[C@@H](C)C(=O)N[C@H](C(=O)N1C[C@@H]2C[C@H]1C(=O)N[C@@H](Cc1ccc3ccccc3c1)C(=O)N[C@H](C(=O)O)Cc1ccc(cc1)OCc1cn(nn1)[C@H]1C[C@@H](C(=O)N[C@@H](Cc3ccc4ccccc4c3)C(=O)N[C@H](C(=O)NS(=O)(=O)c3ccncc3)Cc3ccc(cc3)OCc3cn2nn3)N(C(=O)[C@@H](NC(=O)[C@H](C)NC)C(C)(C)C)C1)C(C)(C)C [Compound 1046] |

| Structure (SMILES) | IC50 (His-BIR3 (241-356, XIAP)) | IC50 [1] |
| --- | --- | --- |
| CN[C@@H](C)C(=O)NC(C(=O)N1C[C@@H]2C[C@H]1C(=O)N[C@@H](Cc1ccc3ccccc3c1)C(=O)N[C@H](c1nc(=O)o[nH]1)Cc1ccc(cc1)OCc1cn(nn1)[C@H]1C[C@@H](C(=O)N[C@@H](Cc3ccc4ccccc4c3)C(=O)N[C@H](C(=O)O)Cc3ccc(cc3)OCc3cn2nn3)N(C(=O)[C@@H](NC(=O)[C@H](C)NC)C(C)(C)C)C1)C(C)(C)C (some centres unmarked) [Compound 1047] | < 0.01 µM | ≤ 0.001 µM |

Reference: patent US20140309265A1, “MACROCYCLIC COMPOUNDS FOR INHIBITION OF INHIBITORS OF APOPTOSIS” (Ensemble Therapeutics, priority 2011, published 2014)
